# Test results published in patent US20160346313A1, “USES OF OLIGOURONATES IN CANCER TREATMENT” (NORWEGIAN UNIVERSITY OF SCIENCE AND TECHNOLOGY, priority 2013, published 2016).
# Tested on: Capan-2 human pancreas tumour xenograft
# Test: Capan-2 human pancreas tumour xenograft model: tumour weight, with statistical analysis (ANOVA by day, Eav, log scale, exponential growth model)
# Assay type: in vivo, Female Athymic Nude mice
# Details: for Tumour weight, Difference vs Vehicle / Tumour weight, Estimate: Q3Dx4, G-Block IV, gemcitabine IP; for Estimate (mg), tumour weight geometric mean / Ratio vs Vehicle: Gemcitabine 5
# Experimental: Efficacy was assessed by comparison of tumour weights of treated groups with the vehicle control group on Day 11 and 74 and between combination groups and their respective single agents on Day 11 and 74.
# G-Block (Lot #PolyG 230712-Dp10, 95%G) was received as a white hygroscopic amorphous powder from NTNU Technology Transfer AS (Trondheim, Norway) and stored desiccated at room temperature until use. NTNU's G-Block was dissolved in MilliQ water to a concentration of 70 mg/ml to be used as the stock solution. This solution was used to deliver a dose of approximately 560 mg/kg in a 200 μl fixed dose. The 70 mg/ml solution was then diluted in 0.9% 150 mM NaCl (B. Braun Medical; Irvine, Calif.) to deliver doses of approximately 200 mg/kg, 75 mg/kg, 25 mg/kg, and 5 mg/kg in a 200 μL fixed dose volume. All dosing calculations assume a 25 g animal. NTNU's G-Block 70 mg/ml stock solution was formulated at the beginning of the study and used for dilutions before each dose, sterile filtered, and stored at 4° C. between doses. All unused dosing mixture was properly disposed of at TD2 after the study ended.
# All unused dosing mixture was properly disposed of at TD2 after each dose.
# Vehicle control was dosed with a solution of 0.9% 150 mM NaCl at a 10 ml/kg dose volume. Vehicle control was stored at room temperature.
# Capan-2 human pancreas tumour xenograft cell line was received from ATCC (Manassas, Va.). Cultures were maintained in McCoy's 5A medium (Hyclone, Logan, Utah) supplemented with 10% fetal bovine serum (Omega Scientific; Tarzana, Calif.), and housed in a 5% CO2 atmosphere. The cultures were expanded in tissue culture flasks at a 1:5 split ratio until a sufficient amount of cells were harvested.
# Female Athymic Nude mice (Hsd:Athymic Nude-Foxn1^nu) were supplied by Harlan (Germantown, N.Y.). Mice were received at 4 weeks of age. All mice were acclimated prior to handling. The mice were housed in microisolator cages (Lab Products, Seaford, Del.) and maintained under specific pathogen-free conditions. The mice were fed Tekland Global Diet® 2920× irradiated laboratory animal diet (Harlan, Indianapolis, Ind.) and autoclaved water was freely available. All procedures were carried out under the institutional guidelines of TGen Drug Development Institutional Animal Care and Use Committee (Protocol #13046).
# Female mice were inoculated subcutaneously in the right flank with 0.1 mL of a 50% RPMI/50% Matrigel™ (BD Biosciences, Bedford, Mass.) mixture containing a suspension of Capan-2 tumor cells (approximately 5.0×10^6 cells/mouse). Seven days following inoculation, tumors were measured using calipers and tumor weight was calculated using the animal study management software, Study Director V.2.1.1 (Study Log)^1. Eighty mice with tumor sizes of 101-194 mg were randomized into eight groups of ten mice each by random equilibration with a mean of approximately 140 mg, using Study Director (Day 1). Body weights were recorded when the mice were randomized and were taken twice weekly thereafter in conjunction with tumor measurements. Dosing was performed as described below in Table 1.
# All groups were terminated on Day 74. Mice were sacrificed prior to study end if tumor weight exceeded 1500 mg. Upon necropsy, tumors were excised from all animals in all groups and bisected in halves, placed in formalin vials (Azer Scientific/VWR; Franklin Lakes, N.J.) then fixed for approximately 24 hours before transferring to ethanol. Formalin-fixed tissues were embedded in paraffin, processed, and H & E stained.
# The following concerns a statistical analysis of tumour weights in the study reported in Example 2. […] Tumour weight and body weights were assessed Day 1 and then twice weekly up to last assessment on Day 74.
# Treatments were compared using an analysis of variance (ANOVA) model with fixed factor treatment and tumour weight at Day 1 as a covariate and assuming equal variance for each assessment (Day 1 model without covariate).
# [1] = 0-19 days, label number = dose mg/kg, Q3Dx4
# [2] = 0-29 days, label number = dose mg/kg, Q3Dx4
# [3] = 0-39 days, label number = dose mg/kg, Q3Dx4
# [4] = 0-50 days, label number = dose mg/kg, Q3Dx4
# [5] = 0-60 days, label number = dose mg/kg, Q3Dx4
# [6] = Day 1 (randomisation), label number = dose mg/kg
# [7] = Day 4, label number = dose mg/kg
# [8] = Day 8, label number = dose mg/kg
# [9] = Day 11, label number = dose mg/kg
# [10] = Day 16, label number = dose mg/kg
# [11] = Day 19, label number = dose mg/kg
# [12] = Day 22, label number = dose mg/kg
# [13] = Day 25, label number = dose mg/kg
# [14] = Day 29, label number = dose mg/kg
# [15] = Day 32, label number = dose mg/kg
# [16] = Day 36, label number = dose mg/kg
# [17] = Day 39, label number = dose mg/kg
# [18] = Day 43, label number = dose mg/kg
# [19] = Day 46, label number = dose mg/kg
# [20] = Day 50, label number = dose mg/kg
# [21] = Day 53, label number = dose mg/kg
# [22] = Day 57, label number = dose mg/kg
# [23] = Day 60, label number = dose mg/kg
# [24] = Day 64, label number = dose mg/kg
# [25] = Day 67, label number = dose mg/kg
# [26] = Day 71, label number = dose mg/kg
# [27] = Day 74, label number = dose mg/kg
smiles,measurement,setting,value
"Nc1ccn([C@@H]2O[C@H](CO)[C@@H](O)C2(F)F)c(=O)n1 [Gemcitabine 5, Gemcitabine]","Eau, 0-19 (average tumour weight = AUC / interval length), Estimate",[1],173.4 mg
same,"Eau, 0-19, Difference vs Vehicle",[1],-67.6 mg
same,"Eau, 0-29 (average tumour weight = AUC / interval length), Estimate",[2],195.5 mg
same,"Eau, 0-29, Difference vs Vehicle",[2],-93.6 mg
same,"Eau, 0-39 (average tumour weight = AUC / interval length), Estimate",[3],231.3 mg
same,"Eau, 0-39, Difference vs Vehicle",[3],-118.1 mg
same,"Eau, 0-50 (average tumour weight = AUC / interval length), Estimate",[4],292.1 mg
same,"Eau, 0-50, Difference vs Vehicle",[4],-121.2 mg
same,"Eau, 0-60 (average tumour weight = AUC / interval length), Estimate",[5],349.7 mg
same,"Eau, 0-60, Difference vs Vehicle",[5],-118.4 mg
same,"Consistent statistically significant effect versus Vehicle on tumour weight, up to Day",ANOVA by day,≤ 36
same,"Eav intervals with statistically significant effects versus Vehicle, up to",ANOVA of Eav,up to 50 days
same,"Tumour weight, Difference vs Vehicle",[6],-0.0 mg
same,"Tumour weight, Estimate",[6],140.7 mg
same,"Estimate (mg), tumour weight geometric mean",Day 1,138.6 mg
same,Ratio vs Vehicle,Day 1,1.00
same,"Estimate (mg), tumour weight geometric mean",Day 4,186.7 mg
same,"Tumour weight, Difference vs Vehicle",[7],14.1 mg
same,"Tumour weight, Estimate",[7],189.8 mg
same,"Estimate (mg), tumour weight geometric mean",Day 8,157.0 mg
same,Ratio vs Vehicle,Day 8,0.71
same,"Tumour weight, Difference vs Vehicle",[8],-69.0 mg
same,"Tumour weight, Estimate",[8],161.6 mg
same,"Estimate (mg), tumour weight geometric mean",Day 11,167.8 mg
same,Ratio vs Vehicle,Day 11,0.64
same,"Tumour weight, Difference vs Vehicle",[9],-111.0 mg
same,"Tumour weight, Estimate",[9],174.2 mg
same,"Estimate (mg), tumour weight geometric mean",Day 16,172.5 mg
same,Ratio vs Vehicle,Day 16,0.63
same,"Tumour weight, Difference vs Vehicle",[10],-116.3 mg
same,"Tumour weight, Estimate",[10],181.4 mg
same,"Estimate (mg), tumour weight geometric mean",Day 19,185.1 mg
same,Ratio vs Vehicle,Day 19,0.64
same,"Tumour weight, Difference vs Vehicle",[11],-119.5 mg
same,"Tumour weight, Estimate",[11],194.7 mg
same,"Estimate (mg), tumour weight geometric mean",Day 22,216.1 mg
same,Ratio vs Vehicle,Day 22,0.67
same,"Tumour weight, Difference vs Vehicle",[12],-122.5 mg
same,"Tumour weight, Estimate",[12],225.0 mg
same,"Estimate (mg), tumour weight geometric mean",Day 25,233.4 mg
same,Ratio vs Vehicle,Day 25,0.64
same,"Tumour weight, Difference vs Vehicle",[13],-157.9 mg
same,"Tumour weight, Estimate",[13],244.0 mg
same,"Estimate (mg), tumour weight geometric mean",Day 29,258.9 mg
same,Ratio vs Vehicle,Day 29,0.64
same,"Tumour weight, Difference vs Vehicle",[14],-164.9 mg
same,"Tumour weight, Estimate",[14],273.6 mg
same,"Estimate (mg), tumour weight geometric mean",Day 32,286.5 mg
same,Ratio vs Vehicle,Day 32,0.62
same,"Tumour weight, Difference vs Vehicle",[15],-208.5 mg
same,"Tumour weight, Estimate",[15],310.1 mg
same,"Estimate (mg), tumour weight geometric mean",Day 36,324.4 mg
same,Ratio vs Vehicle,Day 36,0.68
same,"Tumour weight, Difference vs Vehicle",[16],-190.3 mg
same,"Tumour weight, Estimate",[16],360.9 mg
same,"Estimate (mg), tumour weight geometric mean",Day 39,349.9 mg
same,Ratio vs Vehicle,Day 39,0.78
same,"Tumour weight, Difference vs Vehicle",[17],-165.4 mg
same,"Tumour weight, Estimate",[17],389.6 mg
same,"Estimate (mg), tumour weight geometric mean",Day 43,439.5 mg
same,Ratio vs Vehicle,Day 43,0.84
same,"Tumour weight, Difference vs Vehicle",[18],-138.1 mg
same,"Tumour weight, Estimate",[18],506.6 mg
same,"Estimate (mg), tumour weight geometric mean",Day 46,460.6 mg
same,Ratio vs Vehicle,Day 46,0.86
same,"Tumour weight, Difference vs Vehicle",[19],-107.4 mg
same,"Tumour weight, Estimate",[19],536.4 mg
same,"Estimate (mg), tumour weight geometric mean",Day 50,485.0 mg
same,Ratio vs Vehicle,Day 50,0.85
same,"Tumour weight, Difference vs Vehicle",[20],-130.4 mg
same,"Tumour weight, Estimate",[20],573.5 mg
same,"Estimate (mg), tumour weight geometric mean",Day 53,530.7 mg
same,Ratio vs Vehicle,Day 53,0.93
same,"Tumour weight, Difference vs Vehicle",[21],-61.2 mg
same,"Tumour weight, Estimate",[21],653.0 mg
same,"Estimate (mg), tumour weight geometric mean",Day 57,516.6 mg
same,Ratio vs Vehicle,Day 57,0.90
same,"Tumour weight, Difference vs Vehicle",[22],-144.3 mg
same,"Tumour weight, Estimate",[22],626.6 mg
same,"Estimate (mg), tumour weight geometric mean",Day 60,539.6 mg
same,Ratio vs Vehicle,Day 60,1.00
same,"Tumour weight, Difference vs Vehicle",[23],-84.5 mg
same,"Tumour weight, Estimate",[23],680.5 mg
same,"Estimate (mg), tumour weight geometric mean",Day 64,633.3 mg
same,"Tumour weight, Difference vs Vehicle",[24],76.1 mg
same,"Tumour weight, Estimate",[24],869.5 mg
same,"Estimate (mg), tumour weight geometric mean",Day 67,695.7 mg
same,"Tumour weight, Difference vs Vehicle",[25],85.1 mg
same,"Tumour weight, Estimate",[25],952.8 mg
same,"Estimate (mg), tumour weight geometric mean",Day 71,746.4 mg
same,"Tumour weight, Difference vs Vehicle",[26],54.2 mg
same,"Tumour weight, Estimate",[26],1078.5 mg
same,"Estimate (mg), tumour weight geometric mean",Day 74,746.3 mg
same,Ratio vs Vehicle,Day 74,1.33
same,"Tumour weight, Difference vs Vehicle",[27],157.2 mg
same,"Tumour weight, Estimate",[27],1009.1 mg
same,Estimated differences vs Vehicle in growth rates,"exponential model y=C*exp(a*t), t in days, data up to 60 days, label number = dose mg/kg",−0.0042
same,"Estimated differences between active treatments in growth rates, vs G-B 560","exponential model, data up to 60 days, contrast vs G-Block 560 mg/kg alone",−0.0015
